# Measured values published in patent US20060106015A1, “Novel use of benzothiazole derivatives” (priority 2002, published 2006).
# Target: T1, recombinant human Itk kinase domain fused with GST (Homo sapiens, UniProt Q08881)
# T1 construct: recombinant human Itk kinase domain fused with GST; GST (Glutathione S-Transferase); made in house; host or cells: High five insect cells
# T1 sequence (Q08881 363-615 limits assumed): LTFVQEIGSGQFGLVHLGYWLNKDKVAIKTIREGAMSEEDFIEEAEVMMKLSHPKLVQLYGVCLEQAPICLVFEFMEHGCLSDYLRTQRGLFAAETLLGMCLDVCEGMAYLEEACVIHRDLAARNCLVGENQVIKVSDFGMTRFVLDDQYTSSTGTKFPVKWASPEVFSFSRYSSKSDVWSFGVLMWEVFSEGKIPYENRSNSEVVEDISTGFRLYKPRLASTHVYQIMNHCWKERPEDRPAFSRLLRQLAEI
# Assay: Itk LANCE TRF Assay
# Format: biochemical
# Details: 50 μM ATP, 2 μM peptide substrate, 50 minutes RT; read-out: Inhibition of Kinase Itk (IC50 μM)
# Description: The Itk kinase assay utilized recombinant human Itk kinase domain fused with GST (Glutathione S-Transferase). The protein was expressed in High five insect cells, purified in one step on an affinity chromatography glutathione column and stored in 50 mM Tris/HCl (pH 7.6), 150 mM NaCl, 5% (w/v) mannitol, 1 mM DTT, 30% glycerol at −70° C. The kinase substrate used in the assay was a biotinylated peptide derived from the Src-optimal substrate (Nair et al, J. Med. Chem., 38: 4276, 1995; biotin-AEEEIYGEFEAKKKK).
# The assay additions were as follows: Test compounds (or controls; 1 μL in 100% DMSO) were added to black 96-well flat-bottomed plates (Greiner 655076) followed by 20 μL Itk in assay buffer and the reaction was started by adding 20 μL ATP and peptide substrate in assay buffer. The assay buffer constitution during phosphorylation was: 50 mM HEPES (pH 6.8), 10 mM MgCl2, 0.015% Brij 35, 1 mM DTT, 10% glycerol, 160 ng/well Itk, 2 μM peptide substrate and 50 μM ATP. The assay was stopped after 50 minutes (RT) by adding 150 μL ice-cold Stop solution (50 mM Tris/HCl, pH 7.5, 10 mM EDTA, 0.9% NaCl and 0.1% BSA) together with LANCE reagents (2 nM PT66-Eu^3+, Wallac AD0069 and 5 μg/ml Streptavidin-APC, Wallac AD0059. Both concentrations were final in stopped assay solution). The plates were measured on a Wallac 1420 Victor 2 instrument with TRF settings after 1 h incubation, and the ratio (665 signal/615 signal)*10000 was used to calculate the inhibition values. IC50 values were determined using XLfit.
row,Compound,IC50
1,"O=C(NCCCN1CCOCC1)c1ccc2nc(-c3ccc(Cl)cc3O)sc2c1 [Example 6, 2-(4-Chloro-2-hydroxyphenyl)-N-(3-morpholin-4-ylpropyl)-1,3-benzothiazole-6-carboxamide]",0.94 µM
2,"Oc1ccc(Cl)cc1-c1nc2ccc(CN3CCCC3)cc2s1 [Example 34, 4-Chloro-2-[6-(pyrrolidin-1-ylmethyl)-1,3-benzothiazol-2-yl]phenol]",1.47 µM
3,"OCc1ccc2nc(-c3ccccc3O)sc2c1 [Example 44, 2-[6-(Hydroxymethyl)-1,3-benzothiazol-2-yl]phenol]",3.04 µM
